Source: article PMC8560897, “Bioevaluation and Targeted Modification of Temporin-FL From the Skin Secretion of Dark-Spotted Frog (Pelophylax nigromaculatus)” (Frontiers in Molecular Biosciences, 2021)
No end group written: not given here.

Key:
[1] = tested on: MRSA (ATCC 43300) biofilm; experiment: Scanning electron microscopy of MRSA biofilms; assay type: cell-based, Methicillin-resistant Staphylococcus aureus; conditions: 1 × MBEC, 24 h
Description: Silicon wafers were cut into small squares (5 mm × 5 mm) and placed at the bottom of a 24-well plate. Each well was then filled with 1 ml of sub-cultured MRSA (ATCC 43300) in MHB at a concentration of 5 × 10^5 CFU/ml and incubated at 37°C in a humid shaking incubator for 48 h to enable the formation of visible biofilms on the silicon wafers. Peptides at concentrations of 1 × MBEC and 4 × MBEC were incubated with PBS-washed MRSA biofilm for 24 h. After the incubation, the silicon wafer in each well was first washed in PBS and then fixed in 2.5% glutaraldehyde at 4°C for 4 h. The fixed biofilm was dehydrated using gradient ethanol solution (30, 50, 70, 80, 90, 95, and 100%) at 10-min intervals. The air-dried biofilm samples were coated with gold film using a LEICA-EM-ACE600 sputter coater instrument (Leica, Germany) and transferred to the field emission scanning electron microscopy (FESEM) system (ZEISS-SUPRA55, Germany) operating at 5 kV to observe the morphology of the peptide-treated biofilm.

[2] = tested on: tested Gram-positive bacterial strains and fungi; assay type: cell-based; conditions: 18 h
Description: (§1) Antimicrobial activity was evaluated by assessing minimal inhibitory concentrations (MICs) and minimal bactericidal concentrations (MBCs). The tested microorganisms comprised three Gram-positive bacterial strains, namely S. aureus (NCTC 10788) and MRSA strains (NCTC 12493 and ATCC 43300), E. coli (NCTC 10418), which is a Gram-negative bacterial strain, and C. albicans (NCYC 1467), a yeast species. Standard microbes were cultured in Muller-Hinton Broth (MHB) and suspended to obtain 5 × 10^5 CFU/ml. Subsequently, the equal volume microorganisms solutions were treated with a 2-fold dilution of peptides, the final concentration of the peptides ranged between 512 and 1 μM. The positive control of bacteria strains S. aureus, MRSA NCTC 12493 and E. coli is 0.2 mg/ml norfloxacin, 16 μM mellitin was used as C. albicans positive control and 0.2 mg/ml vancomycin as a positive control in ATCC 43300 MRSA strains. The solutions were incubated in 96-well plates used for measuring MICs followed for 18 h. The MBC values were assessed based on observations of the colony cultured on Muller-Hinton agar (MHA). The antimicrobial assay was performed in triplicate following the procedure applied in previous studies described ([Huang et al., 2017]).

[3] = tested on: E. coli (NCTC 10418); assay type: cell-based; conditions: for Antimicrobial activity MBC / Antimicrobial activity MIC: NCTC 10418, 18 h
Description: as §1

[4] = tested on: C. albicans (NCYC 1467); assay type: cell-based; conditions: NCYC 1467, 18 h
Description: as §1

[5] = tested on: MRSA ATCC 43300 biofilm; assay type: cell-based, Methicillin-resistant Staphylococcus aureus; conditions: ATCC 43300, 48 h
Description: (§2) We evaluated the antibiofilm activity of the three AMPs by applying a crystal violet staining assay following previous research with minor modifications ([Chen et al., 2018]), to determine the minimal biofilm inhibitory concentrations (MBICs) and the minimal biofilm eradication concentrations (MBECs). The tested MRSA bacterial strains (NCTC 12493 and ATCC 43300) were incubated and diluted with MHB to achieve a bacterial concentration of 5 × 10^5 CFU/ml. The peptides were undergone a 2-fold dilution and were incubated with diluted MRSA to determine MBIC values. For the MBEC assay, the diluted bacterial culture was incubated for 48 h to obtain a fully grown biofilm, which was treated with various concentrations of peptides dissolved in MHB and incubated for 24 h at 37°C. The positive control in MBIC and MBEC determination is 0.2 mg/ml vancomycin for MRSA ATCC 43300 strain and the aliquote of norfloxacin for MRSA NCTC 12493.

[6] = tested on: MRSA NCTC 12493 biofilm; assay type: cell-based, Methicillin-resistant Staphylococcus aureus; conditions: NCTC 12493, 48 h
Description: as §2

[7] = in vitro; assay type: cell-based; conditions: human
Description: Human keratinocyte cell line HaCaT (No.1101HUM-PUMC000373) was obtained from the National Infrastructure of Cell Line Resource (Beijing, China) and cultured in high-glucose Dulbecco’s modified Eagle medium (DMEM), containing 10% fetal bovine serum (FBS) and 1% penicillin and streptomycin (Thermo Fisher Scientific Co., Waltham, MA, United States). The grown cells were digested and quantificationally harvested in a 96-wells plate of cell density of 5 × 10^4×cells/ml. After 24 h incubation, the original medium in wells was replaced with fresh medium containing peptides with 2-fold serial dilution, the final concentrations of peptides ranging from […] to 1 μM. When the cells were treated with peptides for 24 h, the cell medium was changed into 100 μl of 10% CCK-8 solution and incubated for 4 h. The absorbance at 450 nm reflected the cell viability in each well. The growth control was cell culture without peptides and blank control was fresh DMEM without cells.

[8] = tested on: MRSA ATCC 43300; assay type: cell-based, Methicillin-resistant Staphylococcus aureus; conditions: not told
Description: The bactericidal activity of cationic peptides resulted from membrane disruption. DNA or RNA that leaked out of the cell was stained with SYTOX™ Green Nucleic Acid Stain (Invitrogen Life Technologies, Carlsbad, CA, United States). The MRSA ATCC 43300 bacterial strain was used to evaluate the membrane disruptive potency of the three peptides. The assay was performed according to the procedure described previously with some modifications ([Chen et al., 2018]). Peptides at different concentrations (4 × MIC, 2 × MIC and 1 × MIC) were incubated with the re-suspended bacterial solution at a concentration of 5 × 10^6 CFU/well in the 96-well black plate for 3 h without light. The positive control is 70% isopropanol. SYTOX green dye (the final concentration of 1%) was then added to each well, and the permeabilizing potency was measured as fluorescent intensity using a SpeactraMax i3x plate reader (Molecular Devices, CA, United States). All experiments were done in five replicates for statistical significance.

[9] = tested on: S. aureus (NCTC 10788); assay type: cell-based, Staphylococcus aureus; conditions: NCTC 10788, 18 h
Description: as §1

[10] = tested on: MRSA (ATCC 43300) biofilm formation; experiment: Quantitative biofilm formation assay; assay type: cell-based, Methicillin-resistant Staphylococcus aureus
Description: Based on the previous study of quantitative biofilm formation assay ([Badmasti et al., 2015]; [Liu et al., 2020]), the crystal violet staining method with moderate modifications was applied for analyzing the capability of MRSA (ATCC 43300) forming biofilms when treated with different concentrations of peptides. Specifically, MRSA strain was cultured in MHB medium at 37°C overnight. Then the bacterial culture was subcultured in fresh MHB medium. The quantificational bacterial suspension (5 × 10^5 CFU/ml) was added into a 96-wells plate together with the tested peptides at different concentrations (2 × MBIC, 1 × MBIC, 1/2 × MBIC and 1/4 × MBIC). The MHB medium without bacteria was negative control and MRSA culture solution was the positive control. The cut-off optical density (ODc) was the mean ± deviation value of the absorbance of negative control at 595 nm. The biofilm formation ability of bacteria samples with different concentrations of peptides were divided into four groups: the negative biofilm formation (−) was the OD595nm ≤ ODc, the weak biofilm formation (+) was the ODc < OD595nm ≤ 2 × ODc, the moderate biofilm formation (++) represented the 2 × ODc < OD595nm ≤ 4 × ODc, and the strong biofilm formation (+++) indicated the OD595nm > 4 × ODc.

[11] = Circular-dichroism spectroscopy, helix content (BESTSEL); assay type: physicochemical; conditions: CD
Description: The physiochemical structural analysis entailed website prediction and circular-dichroism (CD) spectroscopy as described previously ([Liu et al., 2017]; [Sang et al., 2018]; [Zhou et al., 2019]). Briefly, temporin-FL and two analogues were dissolved in 10 mM NH4Ac or 10 mM NH4Ac with 50% 2,2,2-trifluoroethanol (TFE) to determine their conformation in different solutions. The 10 mM NH4Ac solution provides a pH stable buffering environment to stabilize peptides and also to prevent system noise and not interfere with CD signals. The results of the CD spectroscopy were inputted into the BESTSEL CD spectrum online analysis tool (http://bestsel.elte.hu/index.php). HeliQuest (https://heliquest.ipmc.cnrs.fr/), and I-Tasser (http://zhanglab.ccmb.med.umich.edu/I-TASSER) were respectively used to determine the helical wheels plots and to predict the 3D secondary structure.

[12] = tested on: defibrinated erythrocytes isolated from whole horse blood; assay type: cell-based; conditions: red cells of horse
Text: Following a previous study ([Huang et al., 2017]), we evaluated the hemolytic activity of three peptides using defibrinated erythrocytes isolated from whole horse blood (TCS Biosciences Ltd., Buckingham, United Kingdom). Phosphate-buffered saline (PBS) and 1% Triton X-100 were used as negative and positive controls, respectively, and 1% DMSO/PBS was used as the vehicle control. The HC50 and the therapeutic index (TI = HC50/the geometric mean of MICs against tested bacterial strains of peptide) were calculated to determine the therapeutic potential.

[13] = tested on: MRSA ATCC 43300; assay type: cell-based, Methicillin-resistant Staphylococcus aureus; conditions: ATCC 43300, 18 h
Description: as §1

[14] = tested on: MRSA NCTC 12493; assay type: cell-based, Methicillin-resistant Staphylococcus aureus; conditions: NCTC 12493, 18 h
Description: as §1

Substance | Antimicrobial activity MBC [3] [µM] | Antimicrobial activity MIC [3] [µM] | Antimicrobial activity MBC [4] [µM] | Antimicrobial activity MIC [4] [µM] | Antibiofilm activity MBEC [5] [µM] | Antibiofilm activity MBIC [5] [µM] | Antibiofilm activity MBEC [6] [µM] | Antibiofilm activity MBIC [6] [µM] | IC50 at 24 h [7] [µM] | Membrane permeability ranking among the three peptides [8] | Membrane permeabilization, SYTOX Green fluorescent intensity [8] | Antimicrobial activity MBC [9] [µM] | Antimicrobial activity MIC [9] [µM] | Hemolysis effect HC50 [12] [µM] | Antimicrobial activity MBC [13] [µM] | Antimicrobial activity MIC [13] [µM] | Antimicrobial activity MBC [14] [µM] | Antimicrobial activity MIC [14] [µM] | other results
H-FIPLVSGLFSKLL-NH2 [Temporin-FL, FIPLVSGLFSKLL-NH2] | 128 | 128 | 64 | 32 | 64 | 32 | 64 | 32 | 83.4 | moderate permeabilizing activity | relatively weak | 16 | 16 | 157.4 | 32 | 32 | 64 | 32 | Biofilm disruption observed by SEM [1]: moderate bacterial colonies reduction; MICs against tested Gram-positive bacterial strains and fungi [2]: 16 to 32 µM; Activity against Gram-negative bacteria E. coli (in words) ([3]; E. coli): inactive; Biofilm formation ([10]; MRSA ATCC 43300, peptide at 1/2× MBIC): ++ (the moderate biofilm formation (++) represented the 2 × ODc < OD595nm ≤ 4 × ODc); Biofilm formation ([10]; MRSA ATCC 43300, peptide at 1/4× MBIC): ++ (the moderate biofilm formation (++) represented the 2 × ODc < OD595nm ≤ 4 × ODc); Helix in NH4Ac ([11]; 10 mM NH4Ac): 16.7%; Helix in 50%TFE/NH4Ac ([11]; 10 mM NH4Ac with 50% TFE): 92.3%
FIPLVSGLFKLL-NH2 [Temporin-FLa, FIPLVSGLFKLL-NH2] | 128 | 128 | 32 | 8 | 8 | 4 | 32 | 8 | 46.6 | greatest permeability | highest fluorescent intensity | 8 | 4 | 74.02 | 8 | 4 | 16 | 4 | –
FIPVSGLFKLL-NH2 [Temporin-FLb, FIPVSGLFKLL-NH2] | 128 | 128 | 128 | 32 | 128 | 64 | 128 | 64 | 375 | lowest | relatively weak | 16 | 8 | 356.0 | 128 | 64 | 32 | 16 | –
